Data: ChEMBL document CHEMBL4390670, “4-Aryl Pyrrolidines as a Novel Class of Orally Efficacious Antimalarial Agents. Part 1: Evaluation of 4-Aryl- N-benzylpyrrolidine-3-carboxamides” (J Med Chem, 2019)

What was measured:
Plasmodium falciparum = test: microbe, parasite or virus in culture; conditions: 3D7, 72 h
Description: Antimalarial activity against chloroquine-sensitive Plasmodium falciparum 3D7 measured after 72 hrs by SYBR Green 1 dye based fluorescence assay

[1] = molecular target: Voltage-gated inwardly rectifying potassium channel KCNH2 (Homo sapiens, UniProt Q12809)
Description: Inhibition of Tracer Red binding to human ERG expressed in membranes by fluorescence polarization assay

hERG = test: in vitro; conditions: human, membranes expressing human ERG, probe Tracer Red
Description: Selectivity ratio of IC50 for inhibition of Tracer Red binding to human ERG expressed in membranes to IC50 for chloroquine-sensitive Plasmodium falciparum 3D7

[2] = Intrinsic clearance in mouse liver microsomes at 1 uM measured after 30 mins in presence of NADPH by LC-MS/MS analysis; type: ADME, Microsome; conditions: 0.5 h
[3] = Oral bioavailability in mouse at 5 mg/kg by LC-MS analysis; conditions: in vivo
[4] = Half life in mouse liver microsomes at 1 uM measured after 30 mins in presence of NADPH by LC-MS/MS analysis; type: ADME, Microsome; conditions: microsomes, 0.5 h, 1 µM
[5] = Half life in mouse at 2 mg/kg, iv by LC-MS analysis; type: ADME, organism-based; conditions: in vivo
[6] = Apparent clearance in mouse at 2 mg/kg, iv by LC-MS analysis; type: ADME, organism-based; conditions: in vivo, read-out: CL(app)
Plasmepsin II = Plasmepsin II (Plasmodium falciparum, UniProt P46925); test: Inhibition of Plasmodium falciparum plasmepsin 2 using EDANS-CO-CH2-CH2-CO-ALERMFLSFP-Dap(DABCYL)OH as substrate measured after 60 mins by fluorescence assay
Plasmepsin II, sequence (P46925 whole entry): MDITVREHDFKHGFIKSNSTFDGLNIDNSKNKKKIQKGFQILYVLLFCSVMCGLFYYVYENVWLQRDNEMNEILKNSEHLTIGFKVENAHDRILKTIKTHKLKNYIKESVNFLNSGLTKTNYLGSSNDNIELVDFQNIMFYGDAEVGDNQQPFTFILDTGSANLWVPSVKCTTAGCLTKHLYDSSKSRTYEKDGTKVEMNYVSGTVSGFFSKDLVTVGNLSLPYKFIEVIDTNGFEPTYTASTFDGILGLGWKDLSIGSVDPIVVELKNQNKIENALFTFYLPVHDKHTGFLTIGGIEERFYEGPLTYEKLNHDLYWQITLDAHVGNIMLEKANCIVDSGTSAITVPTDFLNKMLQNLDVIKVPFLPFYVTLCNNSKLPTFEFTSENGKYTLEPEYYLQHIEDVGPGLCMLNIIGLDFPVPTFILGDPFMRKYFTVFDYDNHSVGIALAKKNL

[7] = Apparent volume of distribution in mouse at 2 mg/kg, iv by LC-MS analysis; type: ADME, organism-based; conditions: in vivo, read-out: Vz
Plasmepsin 4 = Plasmepsin 4 (Plasmodium falciparum, UniProt Q17SB2); test: Inhibition of Plasmodium falciparum plasmepsin 4 using EDANS-CO-CH2-CH2-CO-ALERMFLSFP-Dap(DABCYL)OH as substrate measured after 60 mins by fluorescence assay
Plasmepsin 4, sequence (Q17SB2 whole entry): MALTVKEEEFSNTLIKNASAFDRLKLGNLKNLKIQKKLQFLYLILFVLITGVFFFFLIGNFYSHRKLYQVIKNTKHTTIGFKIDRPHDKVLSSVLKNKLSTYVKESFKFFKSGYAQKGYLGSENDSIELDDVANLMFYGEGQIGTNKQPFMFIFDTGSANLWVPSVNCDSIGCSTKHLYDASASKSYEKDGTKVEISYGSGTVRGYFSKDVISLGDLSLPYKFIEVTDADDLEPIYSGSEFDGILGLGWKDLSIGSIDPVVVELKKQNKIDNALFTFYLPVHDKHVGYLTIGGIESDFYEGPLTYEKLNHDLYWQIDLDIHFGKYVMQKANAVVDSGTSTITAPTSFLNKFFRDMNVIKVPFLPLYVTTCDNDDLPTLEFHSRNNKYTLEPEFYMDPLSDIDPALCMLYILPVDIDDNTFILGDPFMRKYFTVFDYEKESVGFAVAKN

Beta-secretase 1 = Beta-secretase 1 (Homo sapiens, UniProt P56817); test: Inhibition of recombinant human C-terminal His10-tagged BACE1 using Mca-SEVNLDAEFRK(Dpn)RR-NH2 as substrate measured after 60 mins by TR-FRET assay
Beta-secretase 1, sequence (P56817 whole entry): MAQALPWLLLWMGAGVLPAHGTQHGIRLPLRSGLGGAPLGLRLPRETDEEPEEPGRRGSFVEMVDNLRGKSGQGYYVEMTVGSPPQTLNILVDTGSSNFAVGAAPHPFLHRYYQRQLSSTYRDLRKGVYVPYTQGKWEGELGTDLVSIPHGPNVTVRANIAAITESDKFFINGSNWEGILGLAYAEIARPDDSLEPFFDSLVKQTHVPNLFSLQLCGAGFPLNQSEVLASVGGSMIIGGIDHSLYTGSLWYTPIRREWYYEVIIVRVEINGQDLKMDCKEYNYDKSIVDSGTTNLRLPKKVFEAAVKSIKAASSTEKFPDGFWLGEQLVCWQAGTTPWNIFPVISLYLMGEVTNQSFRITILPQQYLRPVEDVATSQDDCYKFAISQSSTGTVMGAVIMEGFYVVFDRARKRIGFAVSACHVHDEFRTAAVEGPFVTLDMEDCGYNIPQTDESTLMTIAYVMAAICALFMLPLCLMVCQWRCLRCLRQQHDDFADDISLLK

Voltage-gated inwardly rectifying potassium channel KCNH2, sequence (Q12809 whole entry): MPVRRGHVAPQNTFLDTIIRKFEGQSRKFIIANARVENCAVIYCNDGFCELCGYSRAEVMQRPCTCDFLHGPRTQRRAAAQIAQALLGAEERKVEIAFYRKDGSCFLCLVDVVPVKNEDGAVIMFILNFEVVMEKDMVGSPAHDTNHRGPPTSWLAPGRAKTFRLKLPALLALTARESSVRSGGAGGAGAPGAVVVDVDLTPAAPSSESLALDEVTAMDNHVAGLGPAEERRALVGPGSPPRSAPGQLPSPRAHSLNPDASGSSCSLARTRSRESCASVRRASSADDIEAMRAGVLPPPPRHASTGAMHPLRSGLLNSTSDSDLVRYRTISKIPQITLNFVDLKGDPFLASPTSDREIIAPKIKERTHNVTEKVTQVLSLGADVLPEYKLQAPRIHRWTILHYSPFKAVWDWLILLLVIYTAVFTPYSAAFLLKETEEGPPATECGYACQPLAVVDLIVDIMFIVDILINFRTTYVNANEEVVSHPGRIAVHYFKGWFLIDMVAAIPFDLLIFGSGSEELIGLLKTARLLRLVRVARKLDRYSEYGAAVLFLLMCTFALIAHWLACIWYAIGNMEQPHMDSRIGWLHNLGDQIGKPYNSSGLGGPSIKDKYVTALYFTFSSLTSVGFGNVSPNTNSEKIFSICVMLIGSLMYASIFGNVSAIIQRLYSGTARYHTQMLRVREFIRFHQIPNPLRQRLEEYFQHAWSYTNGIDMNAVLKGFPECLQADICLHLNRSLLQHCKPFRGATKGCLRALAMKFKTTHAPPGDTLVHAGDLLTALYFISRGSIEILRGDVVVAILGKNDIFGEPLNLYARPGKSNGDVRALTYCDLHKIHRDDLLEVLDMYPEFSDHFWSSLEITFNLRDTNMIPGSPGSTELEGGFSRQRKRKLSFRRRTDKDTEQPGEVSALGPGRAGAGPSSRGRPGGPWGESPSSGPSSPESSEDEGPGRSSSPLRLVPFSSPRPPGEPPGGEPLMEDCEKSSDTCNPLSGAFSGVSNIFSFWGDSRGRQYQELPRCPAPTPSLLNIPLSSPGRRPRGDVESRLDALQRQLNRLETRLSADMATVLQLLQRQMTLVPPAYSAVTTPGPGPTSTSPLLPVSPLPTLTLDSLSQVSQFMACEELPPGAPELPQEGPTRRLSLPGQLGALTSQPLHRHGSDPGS

Structure (SMILES) | IC50 (Plasmodium falciparum) [µM] | also measured
O=C(NCc1ccc(C(F)(F)F)nc1)[C@H]1CNC[C@@H]1c1ccc(C(F)(F)F)nc1 | 18 | –
C[C@H](NC(=O)[C@@H]1CNC[C@H]1c1ccc(C(F)(F)F)cc1)c1ccc(N(C)C)cc1 | 0.13 | –
O=C(NCc1ccccc1)[C@@H]1CNC[C@H]1c1ccc(C(F)(F)F)cc1 (racemic) | 4.3 | –
CN(C)c1ccc(CNC(=O)[C@H]2CNC[C@@H]2c2cnc(C(F)(F)F)s2)cc1 (racemic) | 1.5 | –
CN(C)c1ccc(CNC(=O)[C@H]2CNC[C@@H]2c2cnc(C(F)(F)F)nc2)cc1 (racemic) | 0.45 | IC50 [1]: > 50 µM; selectivity ratio (hERG): > 111
CN(C)c1ccc(CNC(=O)[C@H]2CNC[C@@H]2c2ccc(C(F)F)cc2)cc1 (racemic) | 0.25 | –
CN(C)c1ccc(CNC(=O)[C@H]2CNC[C@@H]2c2cc3ccccc3o2)cc1 (racemic) | 0.15 | –
CN(C)c1ccc(CNC(=O)[C@@H]2CNC[C@H]2c2ccc(C(C)(C)C)cc2)cc1 (racemic) | 0.19 | –
CN(C)c1ccc(CNC(=O)[C@@H]2CNC[C@H]2c2ccc(C(F)(F)F)cc2Cl)cc1 (racemic) | 0.34 | –
CN(C)c1ccc(CNC(=O)[C@H]2CNC[C@@H]2c2ccc(C(F)(F)F)nc2)cc1 (racemic) | 0.23 to 0.25 | Intrinsic clearance (CLint) [2]: 3.1 µL/min/mg; bioavailability [3]: 13%; t1/2 [4]: 1.17 h; IC50 [1]: 21.7 µM; half-life [5]: 6.6 h; clearance [6]: 0.354 L/h/kg; IC50 (Plasmepsin II): > 10 µM; Vd [7]: 3.2 L/kg; IC50 (Plasmepsin 4): > 10 µM; IC50 (Beta-secretase 1): > 10 µM
CN(C)c1ccc(CNC(=O)[C@@H]2CNC[C@H]2c2ccc(Oc3ccccn3)cc2)cc1 (racemic) | 16 | –
CN(C)c1ccc(CNC(=O)[C@H]2CNC[C@@H]2c2ccc3ccsc3c2)cc1 (racemic) | 0.24 | –
C[C@H](NC(=O)[C@@H]1CNC[C@H]1c1ccc(C(F)(F)F)nc1)c1ccc(N(C)C)cc1 | 0.38 | –
CN(C)c1ccc(CNC(=O)[C@H]2CNC[C@@H]2c2cccc(S(F)(F)(F)(F)F)c2)cc1 (racemic) | 0.41 | –
O=C(NCc1ccc(-c2ccccc2)cc1)[C@H]1CNC[C@@H]1c1ccc(C(F)(F)F)nc1 | 5.9 | –
CN(C)c1ccc(CNC(=O)[C@@H]2CNC[C@H]2c2ccc(Cl)cc2)cc1 (racemic) | 0.68 | –
CN(C)c1ccc(CNC(=O)[C@H]2CNC[C@@H]2c2ccc(C(F)(F)F)nc2)cn1 | 1 | –
CN(C)c1ccc(CNC(=O)[C@H]2CNC[C@@H]2c2ccc(C(F)(F)F)s2)cc1 (racemic) | 1.1 | –
CN(C)c1ccc(CNC(=O)[C@@H]2CNC[C@H]2c2ccc(C(F)(F)F)c(F)c2)cc1 (racemic) | 0.14 | Intrinsic clearance (CLint) [2]: 6.4 µL/min/mg; t1/2 [4]: 0.567 h; IC50 [1]: 8.54 µM; IC50 (Plasmepsin II): > 10 µM; IC50 (Plasmepsin 4): > 10 µM; IC50 (Beta-secretase 1): > 10 µM
CN(C)c1ccc(CNC(=O)[C@@H]2CNC[C@H]2c2ccc(Cl)c(Cl)c2)cc1 (racemic) | 0.13 | –
CN(C)c1ccc(CNC(=O)[C@@H]2CNC[C@H]2c2ccc(Oc3ccccc3)cc2)cc1 (racemic) | 0.17 | Intrinsic clearance (CLint) [2]: 7.2 µL/min/mg; t1/2 [4]: 0.517 h; IC50 [1]: 2.11 µM; IC50 (Plasmepsin II): > 10 µM; IC50 (Plasmepsin 4): > 10 µM; IC50 (Beta-secretase 1): > 10 µM
O=C(NCc1ccc(Br)cc1)[C@H]1CNC[C@@H]1c1ccc(C(F)(F)F)nc1 | 1.2 | –
C[C@@H]1CC[C@H]2[C@@H](C)C(=O)O[C@@H]3O[C@@]4(C)CC[C@@H]1[C@]32OO4 [ARTEMISININ] | 0.054 | –
O=C(NCc1ccc(N2CCCC2)cc1)[C@H]1CNC[C@@H]1c1ccc(C(F)(F)F)nc1 (racemic) | 0.64 | –
